The assay deals with BDF1 mice, L1210 6-MP/6-TG resistant leukemia ip, survival T/C. The experiment in a line: NCI In Vivo Anticancer Drug Screen. Data for tumor model L1210 Leukemia resistant to 6-MP and 6-Thioguanine; NSC 755, NSC 752 (intraperitoneal) in B6D2F1 (BDF1) mice. To be noted: endpoint: mean survival time, higher = longer survival. On the procedure: The antitumor activity of compounds was measured in mice bearing transplantable tumors. Survival or tumor size were measured and the results are expressed as the measurement made in the treated group (T) divided by the measurement made in the vehicle treated control group (C). The tumor model used in this assay is L1210 Leukemia resistant to 6-MP and 6-Thioguanine; NSC 755, NSC 752 (intraperitoneal) in B6D2F1 (BDF1) mice

Setting [1] is: dose: 12.5 mg/kg/injection, schedule: Q01DX015 (ip), vehicle: carboxymethylcellulose (CMC).
[2] abbreviates: dose: 25.0 mg/kg/injection, schedule: Q01DX015 (ip), vehicle: carboxymethylcellulose (CMC).
Setting [3] is: dose: 50.0 mg/kg/injection, schedule: Q01DX015 (ip), vehicle: carboxymethylcellulose (CMC).
[4] abbreviates: dose: 50.0 mg/kg/injection, schedule: Q01DX009 (ip), vehicle: other.
Setting [5] is: dose: 125.0 mg/kg/injection, schedule: Q01DX Z (ip), vehicle: saline.
The mark [6] stands for this setting: dose: 62.5 mg/kg/injection, schedule: Q01DX Z (ip), vehicle: saline.
The mark [7] stands for this setting: dose: 500.0 mg/kg/injection, schedule: Q01DX Z (ip), vehicle: saline.
[8] abbreviates: dose: 750.0 mg/kg/injection, schedule: Q01DX Z (ip), vehicle: saline.
[9] abbreviates: dose: 1000.0 mg/kg/injection, schedule: Q01DX Z (ip), vehicle: saline.

Values joined by “and” are separate entries in the source; they are usually repeats but may differ in a detail not shown here. Equal values may be shown once. Toxic doses and inconclusive results are not listed.

As for `CCCn1cnc2c(=S)nc[nH]c21`, the T/C reads like this: under setting [1], 97 % of control; under setting [2], 95 % of control; under setting [3], 101 % of control; (dose: 100.0 mg/kg/injection, schedule: Q01DX015 (ip), vehicle: carboxymethylcellulose (CMC)) 96 % of control.

As to `CNS(=O)(=O)c1ncnc2nc[nH]c12`, the T/C is 114 % of control (dose: 13.0 mg/kg/injection, schedule: Q01DX Z (ip), vehicle: carboxymethylcellulose (CMC)); 114 % of control (dose: 32.0 mg/kg/injection, schedule: Q01DX Z (ip), vehicle: carboxymethylcellulose (CMC)); 123 % of control (dose: 47.0 mg/kg/injection, schedule: Q01DX Z (ip), vehicle: carboxymethylcellulose (CMC)); 108 % of control (dose: 58.0 mg/kg/injection, schedule: Q01DX Z (ip), vehicle: carboxymethylcellulose (CMC)); 117 % of control (dose: 70.6 mg/kg/injection, schedule: Q01DX Z (ip), vehicle: carboxymethylcellulose (CMC)); 113 % of control (dose: 107.0 mg/kg/injection, schedule: Q01DX Z (ip), vehicle: carboxymethylcellulose (CMC)). For the same compound, the T/C (dose: 160.5 mg/kg/injection, schedule: Q01DX Z (ip), vehicle: carboxymethylcellulose (CMC)) is 105 % of control.

`CC/C(=C(/CC)c1ccc(O)cc1)c1ccc(O)cc1`: the T/C was 90 % of control (dose: 37.5 mg/kg/injection, schedule: Q01DX Z (sc), vehicle: steriod suspending solution); 95 % of control (dose: 50.0 mg/kg/injection, schedule: Q01DX Z (sc), vehicle: steriod suspending solution); 94 % of control (dose: 75.0 mg/kg/injection, schedule: Q01DX Z (sc), vehicle: steriod suspending solution); 94 % of control (dose: 100.0 mg/kg/injection, schedule: Q01DX Z (sc), vehicle: steriod suspending solution).

For the compound `CSc1ncnc2c1ncn2CO`, the T/C is 104 % of control under setting [4] and 110 % of control (dose: 100.0 mg/kg/injection, schedule: Q01DX009 (ip), vehicle: other).

Take `Nc1ccc(OC(=O)Oc2ccc(N)cc2)cc1`: the T/C by setting is: (dose: 62.0 mg/kg/injection, schedule: Q01DX Z (ip), vehicle: saline) 95 % of control; under setting [5], 152 % of control; (dose: 250.0 mg/kg/injection, schedule: Q01DX Z (ip), vehicle: saline) 103 % of control.

For the compound `COCCCNS(=O)(=O)c1ncnc2nc[nH]c12`, the T/C was 92 % of control (dose: 25.0 mg/kg/injection, schedule: Q01DX Z (ip), vehicle: carboxymethylcellulose (CMC)) and 90 % of control (dose: 100.0 mg/kg/injection, schedule: Q01DX Z (ip), vehicle: carboxymethylcellulose (CMC)).

On to `OCn1cnc2c(SC3CCCC3)ncnc21`, for which the T/C reads like this: (dose: 12.5 mg/kg/injection, schedule: Q01DX009 (ip), vehicle: other) 91 % of control; under setting [4], 89 % of control and 93 % of control.

Take `CN(C)/N=N/c1nc[nH]c1C(N)=O`: the T/C is 104 % of control under setting [1]; 107 % of control under setting [2]; 112 % of control under setting [3]; 115 % of control (dose: 200.0 mg/kg/injection, schedule: Q01DX015 (ip), vehicle: carboxymethylcellulose (CMC)).

Take `C=CCSc1ncnc2c1ncn2C1OC(CO)C(O)C1O` (configuration not stated): the T/C is 112 % of control (dose: 5.0 mg/kg/injection, schedule: Q01DX015 (ip), vehicle: saline); 102 % of control (dose: 10.0 mg/kg/injection, schedule: Q01DX015 (ip), vehicle: saline); 100 % of control (dose: 20.0 mg/kg/injection, schedule: Q01DX015 (ip), vehicle: saline); 100 % of control (dose: 40.0 mg/kg/injection, schedule: Q01DX015 (ip), vehicle: saline); 105 % of control (dose: 50.0 mg/kg/injection, schedule: Q01DX015 (ip), vehicle: saline); 94 % of control (dose: 100.0 mg/kg/injection, schedule: Q01DX015 (ip), vehicle: saline). Besides, the T/C (dose: 200.0 mg/kg/injection, schedule: Q01DX015 (ip), vehicle: saline) is 90 % of control.

Regarding `O=C(Nc1ccc(C2=NCCN2)cc1)c1cccc(C(=O)Nc2ccc(C3=NCCN3)cc2)c1`, the T/C runs as follows: (dose: 2.5 mg/kg/injection, schedule: Q01DX Z (ip), vehicle: water) 110 % of control; (dose: 10.0 mg/kg/injection, schedule: Q01DX Z (ip), vehicle: water) 300 % of control; (dose: 20.0 mg/kg/injection, schedule: Q01DX Z (ip), vehicle: water) 187 % of control.

In the case of `CN(C)c1ccc(/C=C\c2ccnc3ccccc23)cc1`, the T/C runs as follows: (dose: 1.87 mg/kg/injection, schedule: Q01DX Z (ip), vehicle: carboxymethylcellulose (CMC)) 106 % of control; (dose: 3.75 mg/kg/injection, schedule: Q01DX Z (ip), vehicle: carboxymethylcellulose (CMC)) 97 % of control; (dose: 7.5 mg/kg/injection, schedule: Q01DX Z (ip), vehicle: carboxymethylcellulose (CMC)) 100 % of control; (dose: 15.0 mg/kg/injection, schedule: Q01DX Z (ip), vehicle: carboxymethylcellulose (CMC)) 91 % of control.

For `c1nc(SC2CCCC2)c2[nH]cnc2n1`, the T/C is 96 % of control (dose: 80.0 mg/kg/injection, schedule: Q01DX Z (ip), vehicle: carboxymethylcellulose (CMC)); 110 % of control (dose: 160.0 mg/kg/injection, schedule: Q01DX Z (ip), vehicle: carboxymethylcellulose (CMC)); 89 % of control (dose: 320.0 mg/kg/injection, schedule: Q01DX Z (ip), vehicle: carboxymethylcellulose (CMC)).

Turning to `CCCCNc1ncnc2c1cnn2C`, the T/C (dose: 2.5 mg/kg/injection, schedule: Q01DX Z (ip), vehicle: saline) was 105 % of control; the T/C (dose: 5.0 mg/kg/injection, schedule: Q01DX Z (ip), vehicle: saline) was 105 % of control; the T/C (dose: 10.0 mg/kg/injection, schedule: Q01DX Z (ip), vehicle: saline) was 105 % of control; the T/C (dose: 20.0 mg/kg/injection, schedule: Q01DX Z (ip), vehicle: saline) was 104 % of control; the T/C (dose: 31.0 mg/kg/injection, schedule: Q01DX Z (ip), vehicle: saline) is 119 % of control; the T/C under setting [6] is 104 % of control. In addition, the T/C under setting [5] was 95 % of control.

Consider `N=C(N)c1ccc(Nc2ccc(C(=N)N)cc2)cc1`, for which the T/C runs as follows: (dose: 2.0 mg/kg/injection, schedule: Q01DX Z (ip), vehicle: water) 112 % of control; (dose: 4.0 mg/kg/injection, schedule: Q01DX Z (ip), vehicle: water) 102 % of control; (dose: 6.0 mg/kg/injection, schedule: Q01DX Z (ip), vehicle: water) 104 % of control; (dose: 8.0 mg/kg/injection, schedule: Q01DX Z (ip), vehicle: water) 106 % of control; (dose: 9.37 mg/kg/injection, schedule: Q01DX Z (ip), vehicle: water) 104 % of control; (dose: 18.75 mg/kg/injection, schedule: Q01DX Z (ip), vehicle: water) 100 % of control.

Take `O=c1cnn(C2OC(CO)C(O)C2O)c(=O)[nH]1` (configuration not stated): the T/C by setting is: under setting [6], 115 % of control; under setting [7], 120 % of control; under setting [8], 110 % of control; under setting [9], 109 % of control.

Turning to `CCC(=O)OCC1OC(n2cnc3c(=S)nc(N)[nH]c32)C(OC(=O)CC)C1OC(=O)CC` (configuration not stated), the T/C (dose: 5.0 mg/kg/injection, schedule: Q01DX Z (ip), vehicle: carboxymethylcellulose (CMC)) was 109 % of control; the T/C (dose: 10.0 mg/kg/injection, schedule: Q01DX Z (ip), vehicle: carboxymethylcellulose (CMC)) is 117 % of control; the T/C (dose: 20.0 mg/kg/injection, schedule: Q01DX Z (ip), vehicle: carboxymethylcellulose (CMC)) was 109 % of control; the T/C (dose: 40.0 mg/kg/injection, schedule: Q01DX Z (ip), vehicle: carboxymethylcellulose (CMC)) was 103 % of control.

For `O=CCC(O)C(O)C(O)CO` (configuration not stated), the T/C reads like this: (dose: 375.0 mg/kg/injection, schedule: Q01DX Z (ip), vehicle: saline) 113 % of control; under setting [7], 113 % of control; under setting [8], 116 % of control; under setting [9], 123 % of control.

Turning to `CCSc1nc(Cl)cc(Sc2nc(N)nc3nc[nH]c23)n1`, the T/C was 107 % of control (dose: 8.0 mg/kg/injection, schedule: Q01DX Z (ip), vehicle: other) and 90 % of control (dose: 16.0 mg/kg/injection, schedule: Q01DX Z (ip), vehicle: other).
